pEC50: −log10 of the molar value. Where two headings read alike, the source gives them in different places.

For this experiment, the system named is HBsAg. Put plainly: HBsAg assay (inhibition of HBsAg in HepG2.2.15 cells). The note with it: supernatant HBsAg by CLIA at day 6 after exposure of compounds. Format: cell-based, hepatitis B virus. The protocol: Inhibition of HBsAg was determined in HepG2.2.15 cells. Cells were maintained in culture medium containing 10% fetal calf serum, […], Glutamine, penicillin/streptomycin. Cells were seeded in 96-well collagen-coated plate at a density of 30,000 cells/well. Serially diluted compounds were added to cells next day at the final DMSO concentration of 0.5%. Cells were incubated with compounds for 2-3 days, after which medium was removed. Fresh medium containing compounds was added to cells for additional 3-4 days. At day 6 after exposure of compounds, supernatant was collected, the HBsAg immunoassay (microplate-based chemiluminescence immunoassay kits, CLIA, Autobio Diagnosics Co., Zhengzhou, China, Catalog #CL0310-2) was used to determine the level of HBsAg according to manufactory instruction. Dose-response curves were generated and the EC50 value (effective concentrations that achieved 50% inhibitory effect) were determined using XLfit software. In addition, cells were seeded at a density of 5,000 cells/well for determination of cell viability in the presence and absence of compounds by using CellTiter-Glo reagent (Promega).

The mark [1] stands for this setting: read-out: sAg EC50, HepG2.2.15 cells.
Setting [2] is: Hepatitis B virus, HepG2.2.15, 144 h, read-out: sAg EC50, HepG2.2.15 cells.

The pEC50 is the EC50 on a negative log10 scale, so that one unit is a factor of ten. Regarding `COc1cc2c(cc1OC)C(CCC(F)(F)F)N(c1ccnc(-c3ncccn3)n1)C2=O` (single isomer, unassigned) [Example 16, 2-([2,2′-Bipyrimidin]-4-yl)-5,6-dimethoxy-3-(3,3,3-trifluoropropyl)isoindolin-1-one], the pEC50 under setting [1] was 4.52.

As for `COc1cc2c(cc1OC)C(c1ccccn1)N(c1ccnc(-c3ncccn3)n1)C2=O` (single isomer, unassigned) [Example 22, 2-([2,2′-Bipyrimidin]-4-yl)-5,6-dimethoxy-3-(pyridin-2-yl)isoindolin-1-one], the pEC50 under setting [1] was 8.40.

Take `CCC1c2cc(OC)c(OC)cc2C(=O)N1c1nc(-c2ncccn2)ncc1F` (single isomer, unassigned) [Example 66, 3-Ethyl-2-(5-fluoro-[2,2′-bipyrimidin]-4-yl)-5,6-dimethoxyisoindolin-1-one]: under setting [1], the pEC50 was 7.47.

For `COc1cc2c(cc1OC)C(c1ccccc1)N(c1ccnc(-c3ncccn3)n1)C2=O` (stereo not drawn) [Example 42, 2-([2,2′-Bipyrimidin]-4-yl)-5,6-dimethoxy-3-phenylisoindolin-1-one], the pEC50 under setting [2] is 9.00.

As to `CCC1c2cc(OC)c(OC)cc2C(=O)N1c1cc(F)nc(-c2ncccn2)n1` (single isomer, unassigned) [Example 68, 3-Ethyl-2-(6-fluoro-[2,2′-bipyrimidin]-4-yl)-5,6-dimethoxyisoindolin-1-one], under setting [1], the pEC50 is 6.00.

As to `CCC1c2cc(OC)c(OC)cc2C(=O)N1c1ccnc(-c2ncccn2)c1` (stereo not drawn) [Example 32, 3-Ethyl-5,6-dimethoxy-2-(2-(pyrimidin-2-yl)pyridin-4-yl)isoindolin-1-one], the pEC50 under setting [2] is 7.70.

Consider `CCC1c2cc(OC)c(Cl)cc2C(=O)N1c1ccnc(-c2ncccn2)n1` (single isomer, unassigned) [Example 6, 2-([2,2′-Bipyrimidin]-4-yl)-6-chloro-3-ethyl-5-methoxyisoindolin-1-one], for which the pEC50 under setting [1] was 7.85.

Consider `COc1cc2c(cc1OC)C(c1ccccn1)N(c1ccnc(-c3ncccn3)n1)C2=O` (single isomer, unassigned) [Example 23, 2-([2,2′-Bipyrimidin]-4-yl)-5,6-dimethoxy-3-(pyridin-2-yl)isoindolin-1-one], for which, under setting [1], the pEC50 is 6.30.

For `COc1cc2c(cc1OC)C(C1CCOCC1)N(c1ccnc(-c3ncccn3)n1)C2=O` (stereo not drawn) [Example 29, 2-([2,2′-Bipyrimidin]-4-yl)-5,6-dimethoxy-3-(tetrahydro-2H-pyran-4-yl)isoindolin-1-one], the pEC50 under setting [2] was 7.52.

For the compound `COc1cc2c(cc1OC)C1(CC1)N(c1ccnc(-c3ncccn3)n1)C2=O` [Example 46, 2′-([2,2′-Bipyrimidin]-4-yl)-5′,6′-dimethoxyspiro[cyclopropane-1,1′-isoindolin]-3′-one], under setting [2], the pEC50 is 6.62.

On to `COc1cc2c(cc1OC)C(c1ccc3c(c1)OCCO3)N(c1ccnc(-c3ncccn3)n1)C2=O` (stereo not drawn) [Example 26, 2-([2,2′-Bipyrimidin]-4-yl)-3-(2,3-dihydrobenzo[b][1,4]dioxin-6-yl)-5,6-dimethoxyisoindolin-1-one], for which the pEC50 under setting [2] was 7.74.

As for `COc1cc2c(cc1OC)C(CC(C)C)N(c1ccnc(-c3ncccn3)n1)C2=O` (single isomer, unassigned) [Example 40, 2-([2,2′-bipyrimidin]-4-yl)-3-isobutyl-5,6-dimethoxyisoindolin-1-one], under setting [1], the pEC50 was 8.00.

`COc1cc2c(cc1OC)C(c1ccccc1)N(c1nc(-c3ncccn3)ncc1F)C2=O` (single isomer, unassigned) [Example 70, 2-(5-Fluoro-[2,2′-bipyrimidin]-4-yl)-5,6-dimethoxy-3-phenylisoindolin-1-one]: the pEC50 under setting [1] was 9.00.

With `CCC1c2cc(OC)c(OC)cc2C(=O)N1c1ccnc(-c2ncccn2)c1` (single isomer, unassigned) [Example 34, 3-Ethyl-5,6-dimethoxy-2-(2-(pyrimidin-2-yl)pyridin-4-yl)isoindolin-1-one], the pEC50 under setting [1] is 7.21.

As to `COc1cc2c(cc1OC)C(c1ccccc1)N(c1ccnc(-c3ncccn3)n1)C2=O` (single isomer, unassigned) [Example 43, 2-([2,2′-Bipyrimidin]-4-yl)-5,6-dimethoxy-3-phenylisoindolin-1-one], the negative-log EC50 (pEC50) under setting [1] was 9.00.

As for `COc1cc2c(cc1OC)C(=O)N(c1ccnc(-c3ncccn3)n1)C2` [Example 62, 2-([2,2′-Bipyrimidin]-4-yl)-5,6-dimethoxyisoindolin-1-one], the pEC50 under setting [2] is 6.89.

Regarding `CCC1c2cc(OC)c(OC)cc2C(=O)N1c1nc(-c2ncccn2)nc(C)c1C` (stereo not drawn) [Example 24, 2-(5,6-Dimethyl-[2,2′-bipyrimidin]-4-yl)-3-ethyl-5,6-dimethoxyisoindolin-1-one], the pEC50 under setting [2] was 5.00.

Turning to `CCC1c2cc(OC)c(OC)cc2C(=O)N1c1cccc(-c2ncccn2)n1` (stereo not drawn) [Example 31, 3-Ethyl-5,6-dimethoxy-2-(6-(pyrimidin-2-yl)pyridin-2-yl)isoindolin-1-one], under setting [2], the pEC50 was 5.15.

As for `COc1cc2c(cc1OC)C(CC(C)C)N(c1ccnc(-c3ncccn3)n1)C2=O` (stereo not drawn) [Example 39, 2-([2,2′-Bipyrimidin]-4-yl)-3-isobutyl-5,6-dimethoxyisoindolin-1-one], the pEC50 under setting [2] is 8.70.

For `O=C1c2cc(F)c(F)cc2CN1c1ccnc(-c2ncccn2)n1` [Example 61, 2-([2,2′-Bipyrimidin]-4-yl)-5,6-difluoroisoindolin-1-one], the pEC50 under setting [2] was 6.35.

With `COc1cc2c(cc1OC)C(c1ccccc1)N(c1nc(-c3ncccn3)ncc1F)C2=O` (single isomer, unassigned) [Example 71, 2-(5-Fluoro-[2,2′-bipyrimidin]-4-yl)-5,6-dimethoxy-3-phenylisoindolin-1-one], the pEC50 under setting [1] was 6.00.

On to `CCC1c2cc(F)c(OC)cc2C(=O)N1c1nc(-c2ncccn2)ncc1OC` (stereo not drawn) [Example 25, 3-Ethyl-5-fluoro-6-methoxy-2-(5-methoxy-[2,2′-bipyrimidin]-4-yl)isoindolin-1-one], for which the pEC50 under setting [2] was 5.00.

Take `CCC1c2cc(OC)c(OC)cc2C(=O)N1c1ccnc(-c2ncc(F)cn2)n1` (single isomer, unassigned) [Example 73, 3-Ethyl-2-(5′-fluoro-[2,2′-bipyrimidin]-4-yl)-5,6-dimethoxyisoindolin-1-one]: under setting [1], the pEC50 was 6.00.

Take `CCC1c2cc(F)c(OC)cc2C(=O)N1c1ccnc(-c2ncccn2)n1` (stereo not drawn) [Example 48, 2-([2,2′-Bipyrimidin]-4-yl)-3-ethyl-5-fluoro-6-methoxyisoindolin-1-one]: the negative-log EC50 (pEC50) under setting [2] was 7.70.

With `COc1cc2c(cc1OC)C(Cc1ccccc1)N(c1ccnc(-c3ncccn3)n1)C2=O` (single isomer, unassigned) [Example 15, 2-([2,2′-Bipyrimidin]-4-yl)-3-benzyl-5,6-dimethoxyisoindolin-1-one], under setting [1], the pEC50 is 4.40.

Take `O=C1c2cc(F)cc(F)c2CCN1c1ccnc(-c2ncccn2)n1` [Example 64, 2-([2,2′-Bipyrimidin]-4-yl)-5,7-difluoro-3,4-dihydroisoquinolin-1(2H)-one]: the pEC50 under setting [2] is 5.30.

On to `COc1cccc(C2c3cc(OC)c(OC)cc3C(=O)N2c2ccnc(-c3ncccn3)n2)c1` (single isomer, unassigned) [Example 12, 2-([2,2′-Bipyrimidin]-4-yl)-5,6-dimethoxy-3-(3-methoxyphenyl)isoindolin-1-one], for which the pEC50 under setting [1] was 8.30.

Source of the values: patent US20230019280A1, “SUBSTITUTED ISOINDOLONYL 2,2'-BIP[…], ANALOGUES THEREOF, AND METHODS USING SAME” (priority 2019, published 2023).
